Measurements from patent publication US10717714B2, “Reactive ultraviolet absorber and application thereof” (CHITEC TECHNOLOGY CO., LTD., priority 2017, dated 2020).

Test: Thermal stability test (Gardner color of DMF solution before and after 150° C. for 3 hours)
Type: physicochemical
Settings: for Color (Gardner color scale), after thermal processing for 3 hours / Color (Gardner color scale), initial: 2 g in 10 ml DMF; for Color (Gardner color scale), after thermal processing for 3 hours: 150° C. for 3 hours; for Color (Gardner color scale), initial: before thermal processing; for Change in color (delta color): before and after heating at 150° C. for 3 hours
Method: 2 g each of the reactive UV absorber I of the present invention, the comparative reactive UV absorber A, and the comparative reactive UV absorber B represented by the following formula B (an embodiment of reactive UV absorber with formula (IIIb) disclosed by U.S. Pat. No. 5,459,222) were respectively dissolved in 10 ml of dimethylformamide (DMF), and the obtained dimethylformamide solutions were subjected to thermal processing at 150° C. for 3 hours. The Gardner color scales of the solutions were measured by colorimeter (Lovibond PFXi-195).

Compound | Color (Gardner color scale), after thermal processing for 3 hours | Color (Gardner color scale), initial | Change in color (delta color)
CC(C)(C)c1cc(CCC(=O)N(CCO)CCO)cc(-n2n3c4ccccc4n23)c1O [Comparative reactive UV absorber A] | 9.1 | 5.4 | 3.7
Cc1cc(CN(CCO)CCO)c(O)c(-n2n3c4ccccc4n23)c1 [Comparative reactive UV absorber B] | 7.2 | 4.2 | 3.0
